Laboratory results reported in patent US20250129028A1, “COMPOUNDS AND METHODS FOR YAP/TEAD MODULATION AND INDICATIONS THEREFOR” (Opna Bio SA, priority 2022, published 2025).

Tested on: TEAD-dependent transcription
Experiment: TEAD-dependent transcription cell-based reporter assay (MSTO-211H+12XGTIIC luciferase)
Parameters: species or system human
Details: Homo sapiens; MSTO-211H+12XGTIIC cell line, luciferase signal normalized to cell viability, 24 hours compound incubation; read-out: MSTO-211H GMean IC50 (uM) Cell Assay Reporter Cell Variant: TEAD
Text: Determine Inhibitor Activity Against TEAD-Dependent Transcription in a Cell-Based Reporter Assay
The human mesothelioma cell line MSTO-211H was stably transfected with a pGL4.21 plasmid containing a synthetic promoter with 12 copies of the GTIIC TEAD response element that drives the expression of a luciferase reporter gene^1 using Lipofectamine transfection reagent (Thermo Fisher). Transfected cells were selected using puromycin and single cell clones expressing this construct (referred to as MSTO-211H+12XGTIIC) were generated by limiting dilution. MSTO-211H cells was characterized by genetic alterations in key components of the Hippo pathway^2, resulting in up-regulation of YAP/TEAD-mediated transcription. […] To evaluate TEAD inhibitors, the MSTO-211H+12XGTIIC cell line was seeded in a 96-well plate in 50 μL of culture media at 1×10^4 cells per well and incubated at 37° C. overnight. Serial dilutions of compounds (in total volume of 50 μL of culture media) were added to the cells and incubated at 37° C. for 24 hours. Each plate included cells treated with DMSO as high controls and cells treated with 20 μM of the reference compound K-975 (a known TEAD inhibitor)^3 as low controls. Cell viability was assayed by the addition of 25 μL of CellTiter-Fluor reagent (Promega) followed by a 30-minute incubation at 37° C. and quantification of the fluorescence signal (Ex400/Em505). Subsequently, luciferase expression was assayed by the addition of 25 μL of ONE-Glo reagent (Promega) followed by a 10-minute incubation at room temperature and quantification of the luminescence signal. The luminescence signal was normalized to the fluorescence signal to correct for any loss in cell viability over the 24-hour compound incubation period. The percentage of inhibition of normalized luminescence signal, indicative of compound-mediated inhibition of TEAD-dependent transcription, at individual compound concentrations relative to high and low controls was calculated. The data were analyzed by using nonlinear regression to generate IC50 values for individual compounds.

Q: How did the IC50 turn out when `C=C(C)OC(=O)N1CCc2ccc(Oc3ccc(C(F)(F)F)cc3)cc2C1` [P-0036, prop-1-en-2-yl 7-(4-(trifluoromethyl)phen-oxy)-3,4-dihydroiso-quinoline-2(1H)-carbox-ylate] was run?
A: 0.001 to 10 µM

Q: For `O=C(NC1CCCC1)N1CCc2ccc(Oc3ccc(C(F)(F)F)cc3)cc2C1` [P-0037, N-cyclopentyl-7-(4-(trifluoromethyl)phen-oxy)-3,4-dihydroiso-quinoline-2(1H)-carbox-amide], which IC50 is on record?
A: 0.001 to 10 µM

Q: How did the IC50 turn out when `O=C(NC1CCOC1)N1CCc2ccc(Oc3ccc(C(F)(F)F)cc3)cc2C1` (stereo not drawn) [P-0038, N-(tetrahydrofuran-3-yl)-7-(4-(trifluorometh-yl)phenoxy)-3,4-dihydro-isoquinoline-2(1H)-carboxamide] was run?
A: 0.001 to 10 µM

Q: With `NC(=O)CCC(=O)N1CCc2ccc(Oc3ccc(C(F)(F)F)cc3)cc2C1` [P-0039, 4-oxo-4-(7-(4-(trifluoro-methyl)phenoxy)-3,4-dihydroisoquinolin-2(1H)-yl)butanamide] as the molecule, how does the IC50 read?
A: 0.001 to 10 µM

Q: Which IC50 does the source give for `N#CCCC(=O)N1CCc2ccc(Oc3ccc(C(F)(F)F)cc3)cc2C1` [P-0040, 4-oxo-4-(7-(4-(trifluoro-methyl)phenoxy)-3,4-dihydroisoquinolin-2(1H)-yl)butanenitrile] here?
A: 0.001 to 10 µM

Q: For `CP(C)(=O)CCC(=O)N1CCc2ccc(Oc3ccc(C(F)(F)F)cc3)cc2C1` [P-0041, 3-(dimethylphosphoryl)-1-(7-(4-(trifluorometh-yl)phenoxy)-3,4-dihydro-isoquinolin-2(1H)-yl)-propan-1-one], which IC50 is on record?
A: 0.001 to 10 µM

Q: Which IC50 does the source give for `N#CC1CC(C(=O)N2CCc3ccc(Oc4ccc(C(F)(F)F)cc4)cc3C2)C1` (stereo not drawn) [P-0042, 3-(7-(4-(trifluorometh-yl)phenoxy)-1,2,3,4-tetrahydroisoquinoline-2-carbonyl)cyclobutane-1-carbonitrile] here?
A: 0.001 to 10 µM

Q: For `O=C1CC(CC(=O)N2CCc3ccc(Oc4ccc(C(F)(F)F)cc4)cc3C2)C(=O)N1` (stereo not drawn) [P-0043, 3-(2-oxo-2-(7-(4-(trifluoromethyl)phen-oxy)-3,4-dihydroiso-quinolin-2(1H)-yl)ethyl)-pyrrolidine-2,5-dione], which IC50 is on record?
A: 0.001 to 10 µM

Q: How did the IC50 turn out when `O=C(CN1C(=O)CCC1=O)N1CCc2ccc(Oc3ccc(C(F)(F)F)cc3)cc2C1` [P-0044, 1-(2-oxo-2-(7-(4-(trifluoromethyl)phen-oxy)-3,4-dihydroiso-quinolin-2(1H)-yl)-ethyl)pyrrolidine-2,5-dione] was run?
A: 0.001 to 10 µM

Q: For `O=C(C1CCS(=O)(=O)C1)N1CCc2ccc(Oc3ccc(C(F)(F)F)cc3)cc2C1` (stereo not drawn) [P-0045, (1,1-dioxidotetrahydro-thiophen-3-yl)(7-(4-(trifluoromethyl)phen-oxy)-3,4-dihydroisoquin-olin-2(1H)-yl)methanone], which IC50 is on record?
A: 0.001 to 10 µM

Q: With `Cc1nnc(CCC(=O)N2CCc3ccc(Oc4ccc(C(F)(F)F)cc4)cc3C2)s1` [P-0046, 3-(5-methyl-1,3,4-thiadi-azol-2-yl)-1-(7-(4-(trifluoromethyl)phen-oxy)-3,4-dihydroisoquin-olin-2(1H)-yl)propan-1-one] as the molecule, how does the IC50 read?
A: 0.001 to 10 µM

Q: How did the IC50 turn out when `O=C(Cc1cnccc1O)N1CCc2ccc(Oc3ccc(C(F)(F)F)cc3)cc2C1` [P-0047, 2-(4-hydroxypyridin-3-yl)-1-(7-(4-(trifluoro-methyl)phenoxy)-3,4-dihydroisoquinolin-2(1H)-yl)ethan-1-one] was run?
A: 0.001 to 10 µM

Q: How did the IC50 turn out when `NS(=O)(=O)CCC(=O)N1CCc2ccc(Oc3ccc(C(F)(F)F)cc3)cc2C1` [P-0048, 3-oxo-3-(7-(4-(trifluoro-methyl)phenoxy)-3,4-dihydroisoquinolin-2(1H)-yl)propane-1-sulfonamide] was run?
A: 0.001 to 10 µM

Q: Which IC50 does the source give for `N#CCCS(=O)(=O)N1CCc2ccc(Oc3ccc(C(F)(F)F)cc3)cc2C1` [P-0049, 3-((7-(4-(trifluorometh-yl)phenoxy)-3,4-dihydro-isoquinolin-2(1H)-yl)sul-fonyl)propanenitrile] here?
A: 0.001 to 10 µM

Q: For `COC(=O)CCS(=O)(=O)N1CCc2ccc(Oc3ccc(C(F)(F)F)cc3)cc2C1` [P-0050, methyl 3-((7-(4-(trifluoro-methyl)phenoxy)-3,4-dihydroisoquinolin-2(1H)-yl)sulfonyl)pro-panoate], which IC50 is on record?
A: 0.001 to 10 µM

Q: How did the IC50 turn out when `NC(=O)CCS(=O)(=O)N1CCc2ccc(Oc3ccc(C(F)(F)F)cc3)cc2C1` [P-0051, 3-((7-(4-(trifluorometh-yl)phenoxy)-3,4-dihydro-isoquinolin-2(1H)-yl)sul-fonyl)propanamide] was run?
A: 0.001 to 10 µM

Q: For `CS(=O)(=O)CCCC(=O)N1CCc2ccc(Oc3ccc(C(F)(F)F)cc3)cc2C1` [P-0052, 4-(methylsulfonyl)-1-(7-(4-(trifluoromethyl)phen-oxy)-3,4-dihydroisoquin-olin-2(1H)-yl)butan-1-one], which IC50 is on record?
A: 0.001 to 10 µM

Q: For `CS(=O)(=O)CCCN1CCc2ccc(Oc3ccc(C(F)(F)F)cc3)cc2C1` [P-0053, 2-(3-(methylsulfonyl)-propyl)-7-(4-(trifluoro-methyl)phenoxy)-1,2,3,4-tetrahydroisoquinoline], which IC50 is on record?
A: 0.001 to 10 µM

Q: With `NS(=O)(=O)NCC(=O)N1CCc2ccc(Oc3ccc(C(F)(F)F)cc3)cc2C1` [P-0054, N-(2-(7-(4-(trifluorometh-yl)phenoxy)-3,4-dihydro-isoquinolin-2(1H)-yl)-2-oxoethyl)sulfamide] as the molecule, how does the IC50 read?
A: 0.001 to 10 µM

Q: How did the IC50 turn out when `CS(=N)(=O)CCC(=O)N1CCc2ccc(Oc3ccc(C(F)(F)F)cc3)cc2C1` (stereo not drawn) [P-0055, imino(methyl)(3-oxo-3-(7-(4-(trifluoromethyl)-phenoxy)-3,4-dihydroiso-quinolin-2(1H)-yl)prop-yl)-16-sulfanone] was run?
A: 0.001 to 10 µM

Q: With `C[S+]([O-])CCC(=O)N1CCc2ccc(Oc3ccc(C(F)(F)F)cc3)cc2C1` (stereo not drawn) [P-0056, 3-(methylsulfinyl)-1-(7-(4-(trifluoromethyl)phen-oxy)-3,4-dihydroisoquin-olin-2(1H)-yl)propan-1-one] as the molecule, how does the IC50 read?
A: 0.001 to 10 µM

Q: `O=C(O)CCC(=O)N1CCc2ccc(Oc3ccc(C(F)(F)F)cc3)cc2C1` [P-0057, 4-oxo-4-(7-(4-(trifluoro-methyl)phenoxy)-3,4-dihydroisoquinolin-2(1H)-yl)butanoic acid] was tested. Which IC50 did it give?
A: 0.001 to 10 µM

Q: `O=C(CCc1nnc[nH]1)N1CCc2ccc(Oc3ccc(C(F)(F)F)cc3)cc2C1` [P-0058, 3-(4H-1,2,4-triazol-3-yl)-1-(7-(4-(trifluorometh-yl)phenoxy)-3,4-dihydro-isoquinolin-2(1H)-yl)-propan-1-one] was tested. Which IC50 did it give?
A: 0.001 to 10 µM

Q: For `O=C(CC1CCS(=O)(=O)C1)N1CCc2ccc(Oc3ccc(C(F)(F)F)cc3)cc2C1` (stereo not drawn) [P-0059, 2-(1,1-dioxidotetrahydro-thiophen-3-yl)-1-(7-(4-(trifluoromethyl)phen-oxy)-3,4-dihydroisoquin-olin-2(1H)-yl)ethan-1-one], which IC50 is on record?
A: 0.001 to 10 µM

Q: `N#CC1(CC(=O)N2CCc3ccc(Oc4ccc(C(F)(F)F)cc4)cc3C2)CC1` [P-0060, 1-(2-oxo-2-(7-(4-(trifluoromethyl)phen-oxy)-3,4-dihydroiso-quinolin-2(1H)-yl)-ethyl)cyclopropane-1-carbonitrile] was tested. Which IC50 did it give?
A: 0.001 to 10 µM

Q: How did the IC50 turn out when `O=C(CCS(=O)(=O)C(F)(F)F)N1CCc2ccc(Oc3ccc(C(F)(F)F)cc3)cc2C1` [P-0061, 1-(7-(4-(trifluorometh-yl)phenoxy)-3,4-dihydro-isoquinolin-2(1H)-yl)-3-((trifluoromethyl)sulfon-yl)propan-1-one] was run?
A: 0.001 to 10 µM

Q: `Cc1noc(CCC(=O)N2CCc3ccc(Oc4ccc(C(F)(F)F)cc4)cc3C2)n1` [P-0062, 3-(3-methyl-1,2,4-oxadi-azol-5-yl)-1-(7-(4-(trifluoromethyl)phen-oxy)-3,4-dihydroisoquin-olin-2(1H)-yl)propan-1-one] was tested. Which IC50 did it give?
A: 0.001 to 10 µM

Q: `Cc1nnc(CCC(=O)N2CCc3ccc(Oc4ccc(C(F)(F)F)cc4)cc3C2)o1` [P-0063, 3-(5-methyl-1,3,4-oxadi-azol-2-yl)-1-(7-(4-(trifluoromethyl)phen-oxy)-3,4-dihydroisoquin-olin-2(1H)-yl)propan-1-one] was tested. Which IC50 did it give?
A: 0.001 to 10 µM

Q: For `N#Cc1ccncc1NC(=O)N1CCc2ccc(Oc3ccc(C(F)(F)F)cc3)cc2C1` [P-0064, N-(4-Cyanopyridin-3-yl)-7-(4-(trifluoromethyl)phenoxy)-3,4-dihydroisoquinoline-2(1H)-carboxamide], which IC50 is on record?
A: 0.001 to 10 µM

Q: Which IC50 does the source give for `CN(C(=O)N1CCc2ccc(Oc3ccc(C(F)(F)F)cc3)cc2C1)C1CCS(=O)(=O)C1` (stereo not drawn) [P-0065, N-(1,1-dioxidotetra-hydrothiophen-3-yl)-N-methyl-7-(4-(trifluoro-methyl)phenoxy)-3,4-dihydroisoquinoline-2(1H)-carboxamide] here?
A: 0.001 to 10 µM

Q: For `CN(CCC#N)C(=O)N1CCc2ccc(Oc3ccc(C(F)(F)F)cc3)cc2C1` [P-0066], which IC50 is on record?
A: 0.001 to 10 µM

Q: How did the IC50 turn out when `O=C(CCO)N1CCc2ccc(Oc3ccc(C(F)(F)F)cc3)cc2C1` [P-0067, 3-hydroxy-1-(7-(4-(trifluoromethyl)phen-oxy)-3,4-dihydroiso-quinolin-2(1H)-yl)-propan-1-one] was run?
A: 0.001 to 10 µM

Q: `CNCCC(=O)N1CCc2ccc(Oc3ccc(C(F)(F)F)cc3)cc2C1` [P-0068, 3-(methylamino)-1-(7-(4-(trifluoromethyl)phen-oxy)-3,4-dihydroisoquin-olin-2(1H)-yl)propan-1-one] was tested. Which IC50 did it give?
A: 0.001 to 10 µM
